Legend:
Assay type in all cases: tissue-based
[1] = target: Histamine H1 receptor (Cavia porcellus) (UniProt P31389); experiment: Inhibition of H1 receptor in Cavia porcellus Hartley (guinea pig) ileum assessed as inhibition of histamine-induced spasms incubated at 10 '-6 M 2 min prior histamine-challenge
Histamine H1 receptor = Histamine H1 receptor (Cavia porcellus, UniProt P31389); experiment: Inhibition of H1 receptor in Cavia porcellus Hartley (guinea pig) ileum assessed as inhibition of histamine-induced spasms incubated 2 min prior histamine-challenge
Sequence of Histamine H1 receptor (P31389 whole entry): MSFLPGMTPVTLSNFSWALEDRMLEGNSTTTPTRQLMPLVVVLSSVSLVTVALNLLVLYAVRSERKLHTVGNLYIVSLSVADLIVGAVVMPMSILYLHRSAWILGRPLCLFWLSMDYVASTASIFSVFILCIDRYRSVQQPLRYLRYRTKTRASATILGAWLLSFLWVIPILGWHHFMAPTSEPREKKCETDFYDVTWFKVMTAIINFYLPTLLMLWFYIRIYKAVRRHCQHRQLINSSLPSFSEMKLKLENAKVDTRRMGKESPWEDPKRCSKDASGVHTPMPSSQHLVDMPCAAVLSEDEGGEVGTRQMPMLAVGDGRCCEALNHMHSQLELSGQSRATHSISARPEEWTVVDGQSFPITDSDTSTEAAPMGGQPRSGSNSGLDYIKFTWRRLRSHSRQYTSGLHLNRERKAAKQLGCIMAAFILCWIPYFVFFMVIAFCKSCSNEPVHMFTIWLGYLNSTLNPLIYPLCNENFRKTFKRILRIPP

[2] = target: Histamine H1 receptor (Cavia porcellus) (UniProt P31389); experiment: Inhibition of H1 receptor in Cavia porcellus Hartley (guinea pig) ileum assessed as inhibition of histamine-induced spasms incubated at 10 '-5 M 2 min prior histamine-challenge
[3] = target: Histamine H1 receptor (Cavia porcellus) (UniProt P31389); experiment: Inhibition of H1 receptor in Cavia porcellus Hartley (guinea pig) ileum assessed as inhibition of histamine-induced spasms incubated at 10 '-3 M 2 min prior histamine-challenge
[4] = target: Histamine H1 receptor (Cavia porcellus) (UniProt P31389); experiment: Inhibition of H1 receptor in Cavia porcellus Hartley (guinea pig) ileum assessed as inhibition of histamine-induced spasms incubated at 10 '-2 M 2 min prior histamine-challenge
[5] = target: Histamine H1 receptor (Cavia porcellus) (UniProt P31389); experiment: Inhibition of H1 receptor in Cavia porcellus Hartley (guinea pig) ileum assessed as inhibition of histamine-induced spasms incubated 2 min prior histamine-challenge relative to acrivastine
[6] = target: Histamine H1 receptor (Cavia porcellus) (UniProt P31389); experiment: Inhibition of H1 receptor in Cavia porcellus Hartley (guinea pig) ileum assessed as inhibition of histamine-induced spasms incubated at 10 '-4 M 2 min prior histamine-challenge

Sequence of Histamine H1 receptor (Cavia porcellus) (P31389 whole entry): as above

| Structure (SMILES) | inhibition [1] | IC50 (Histamine H1 receptor) | inhibition [2] | inhibition [3] | inhibition [4] | Emax [5] | inhibition [6] |
| --- | --- | --- | --- | --- | --- | --- | --- |
| CC(CO)(CO)Nc1nc2ccccc2[nH]1 | 7.16% | 28.9 µM | 29.6% | 69% | 100% | 55% | 55% |
| CC(CO)(CO)NCc1nc2ccccc2[nH]1 | 0% |  | 11.2% | 50% | 85.7% | 14.2% | 14.2% |
| CC(C)(CO)NCC(C)(C)N1C(=O)c2ccccc2C1=O | 0% |  | 0% | 62.9% | 100% | 20% | 20% |
| CC(C)CNCC(C)(C)N1C(=O)c2ccccc2C1=O | 14% |  | 16% | 20% | 22% | 18% | 18% |
| CC(CO)(CO)NCCCN1C(=O)c2ccccc2C1=O | 5.45% | 80.2 µM | 28.4% | 69.2% | 100% | 54% | 54% |
| Cc1ccc(/C(=C\CN2CCCC2)c2cccc(/C=C/C(=O)O)n2)cc1 [ACRIVASTINE] | 16.6% | 6.12 µM | 60% | 100% | 100% | 100% | 100% |
| O=C1NC(=O)C(=CNC2CCCCC2)C(=O)N1 | 20% | 7 µM | 55.3% | 100% | 100% | 100% | 100% |
| CCOC(=O)N1CCN(C=C2C(=O)NC(=O)NC2=O)CC1 | 8% |  | 9% | 25% | 25% | 25% | 25% |
| CC(C)(CO)NC=C1C(=O)NC(=O)NC1=O | 16.7% | 6.15 µM | 40% | 85.5% | 100% | 65% | 65% |
| O=C1NC(=O)C(=CN2CCOCC2)C(=O)N1 | 12.8% | 86.8 µM | 57.3% | 100% | 100% | 100% | 100% |
| CC(C)(CO)N1C(=O)c2ccccc2C1=O | 0% |  | 0% | 0% | 0% | 0% | 0% |
| OCCN(Cc1nc2ccccc2[nH]1)c1nc2ccccc2[nH]1 | 0% |  | 10.5% | 60% | 65.5% | 11% | 11% |
| O=C1c2ccccc2C(=O)N1CC(O)CNC1CCCCC1 (racemic) | 12.9% |  | 33.3% | 66% | 78.3% | 37.5% | 37.5% |

From ChEMBL document CHEMBL3046530, “Novel potential nonsedating H1 antagonists related to the gauche rotamer of PROS-NH-histamine” (Med Chem Res, 2009)
